Data taken from ChEMBL document CHEMBL1153694, “Non-hinge-binding pyrazolo[1,5-a]pyrimidines as potent B-Raf kinase inhibitors” (Bioorg Med Chem Lett, 2009).
pIC50: −log10 of the molar value.

How the values were obtained:
WM-266-4 (Homo sapiens) [1] = assay: Cytotoxicity against human WM266.4 cells expressing B-Raf mutant
[2] = target: Serine/threonine-protein kinase B-raf (Homo sapiens, UniProt P15056); assay: Inhibition of human recombinant B-Raf expressed in Sf9 cells
[3] = Cytotoxicity against human HT-29 cells expressing B-Raf mutant
WM-266-4 (Homo sapiens) [4] = assay: Cytotoxicity against human WM-266-4 cells expressing B-Raf mutant
in vitro = conditions: rat, liver microsomes
[5] = target: Mitogen-activated protein kinase 14 (Homo sapiens, UniProt Q16539); assay: Inhibition of p38alpha
[6] = Inhibition of CAMK2
[7] = target: Phosphatidylinositol 4,5-bisphosphate 3-kinase catalytic subunit alpha isoform (Homo sapiens, UniProt P42336); assay: Inhibition of PI3Kalpha
[8] = target: T1, Inhibitor of nuclear factor kappa-B kinase subunit beta (Homo sapiens, UniProt O14920); assay: Inhibition of IKK-beta
T1 sequence (O14920 whole entry): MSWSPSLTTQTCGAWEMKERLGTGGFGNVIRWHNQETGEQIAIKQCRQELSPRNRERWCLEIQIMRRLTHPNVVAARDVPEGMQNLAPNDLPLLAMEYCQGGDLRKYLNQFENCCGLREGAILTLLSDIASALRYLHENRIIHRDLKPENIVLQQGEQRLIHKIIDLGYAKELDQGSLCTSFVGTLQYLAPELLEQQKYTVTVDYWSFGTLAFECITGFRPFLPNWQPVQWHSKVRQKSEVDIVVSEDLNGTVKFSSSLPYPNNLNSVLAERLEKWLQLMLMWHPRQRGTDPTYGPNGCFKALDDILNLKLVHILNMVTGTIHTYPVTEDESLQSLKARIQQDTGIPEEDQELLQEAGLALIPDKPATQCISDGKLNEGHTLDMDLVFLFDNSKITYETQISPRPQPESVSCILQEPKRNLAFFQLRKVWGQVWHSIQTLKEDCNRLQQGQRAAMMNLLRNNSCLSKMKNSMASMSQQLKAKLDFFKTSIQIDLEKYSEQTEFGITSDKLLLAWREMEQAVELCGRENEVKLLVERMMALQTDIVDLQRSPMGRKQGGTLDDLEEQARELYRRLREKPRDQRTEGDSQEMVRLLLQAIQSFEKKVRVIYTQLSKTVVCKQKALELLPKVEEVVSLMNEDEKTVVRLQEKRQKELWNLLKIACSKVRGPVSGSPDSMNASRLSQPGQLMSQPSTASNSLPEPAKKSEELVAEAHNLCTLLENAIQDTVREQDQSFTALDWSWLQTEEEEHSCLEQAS

[9] = target: Ribosomal protein S6 kinase beta-1 (Homo sapiens, UniProt P23443); assay: Inhibition of p70S6K
[10] = Inhibition of PKA
[11] = target: MAP kinase-activated protein kinase 2 (Homo sapiens, UniProt P49137); assay: Inhibition of MK2
[12] = target: Mitogen-activated protein kinase 8 (Homo sapiens, UniProt P45983); assay: Inhibition of JNK1
[13] = target: Protein kinase C alpha type (Homo sapiens, UniProt P17252); assay: Inhibition of PKCalpha
[14] = target: T2, Dual specificity mitogen-activated protein kinase kinase 6 (Homo sapiens, UniProt P52564); assay: Inhibition of MKK6
T2 sequence (P52564 whole entry): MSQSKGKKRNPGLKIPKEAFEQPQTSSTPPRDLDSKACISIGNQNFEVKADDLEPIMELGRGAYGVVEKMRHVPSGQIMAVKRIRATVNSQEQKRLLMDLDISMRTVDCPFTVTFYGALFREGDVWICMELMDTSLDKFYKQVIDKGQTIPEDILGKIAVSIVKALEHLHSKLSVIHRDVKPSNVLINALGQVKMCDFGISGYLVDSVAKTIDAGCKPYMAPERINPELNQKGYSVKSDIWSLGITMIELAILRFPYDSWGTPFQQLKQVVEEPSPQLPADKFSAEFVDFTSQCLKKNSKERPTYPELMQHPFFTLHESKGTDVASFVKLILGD

[15] = target: Serine/threonine-protein kinase PLK1 (Homo sapiens, UniProt P53350); assay: Inhibition of PLK1
[16] = target: Cyclin-dependent kinase 4 (Homo sapiens, UniProt P11802); assay: Inhibition of CDK4
[17] = target: Cyclin-dependent kinase 2 (Homo sapiens, UniProt P24941); assay: Inhibition of CDK2
[18] = target: Proto-oncogene tyrosine-protein kinase Src (Homo sapiens, UniProt P12931); assay: Inhibition of SRC
Proto-oncogene tyrosine-protein kinase Src, sequence (P12931 2-536 limits assumed): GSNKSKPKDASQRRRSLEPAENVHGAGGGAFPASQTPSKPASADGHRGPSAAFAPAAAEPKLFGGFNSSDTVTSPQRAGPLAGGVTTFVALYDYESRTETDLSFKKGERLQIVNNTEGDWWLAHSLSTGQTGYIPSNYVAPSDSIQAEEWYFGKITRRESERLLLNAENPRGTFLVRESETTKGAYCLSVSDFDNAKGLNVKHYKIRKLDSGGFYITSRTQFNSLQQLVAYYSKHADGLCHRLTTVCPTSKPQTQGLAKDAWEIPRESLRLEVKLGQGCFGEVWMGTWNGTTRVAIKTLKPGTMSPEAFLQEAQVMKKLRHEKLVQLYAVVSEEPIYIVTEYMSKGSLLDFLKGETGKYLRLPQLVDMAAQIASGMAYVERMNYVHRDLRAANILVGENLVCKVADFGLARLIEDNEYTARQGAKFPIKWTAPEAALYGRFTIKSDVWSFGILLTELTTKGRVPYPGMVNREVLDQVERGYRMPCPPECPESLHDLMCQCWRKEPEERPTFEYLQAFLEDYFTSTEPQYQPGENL

Serine/threonine-protein kinase B-raf, sequence (P15056 whole entry): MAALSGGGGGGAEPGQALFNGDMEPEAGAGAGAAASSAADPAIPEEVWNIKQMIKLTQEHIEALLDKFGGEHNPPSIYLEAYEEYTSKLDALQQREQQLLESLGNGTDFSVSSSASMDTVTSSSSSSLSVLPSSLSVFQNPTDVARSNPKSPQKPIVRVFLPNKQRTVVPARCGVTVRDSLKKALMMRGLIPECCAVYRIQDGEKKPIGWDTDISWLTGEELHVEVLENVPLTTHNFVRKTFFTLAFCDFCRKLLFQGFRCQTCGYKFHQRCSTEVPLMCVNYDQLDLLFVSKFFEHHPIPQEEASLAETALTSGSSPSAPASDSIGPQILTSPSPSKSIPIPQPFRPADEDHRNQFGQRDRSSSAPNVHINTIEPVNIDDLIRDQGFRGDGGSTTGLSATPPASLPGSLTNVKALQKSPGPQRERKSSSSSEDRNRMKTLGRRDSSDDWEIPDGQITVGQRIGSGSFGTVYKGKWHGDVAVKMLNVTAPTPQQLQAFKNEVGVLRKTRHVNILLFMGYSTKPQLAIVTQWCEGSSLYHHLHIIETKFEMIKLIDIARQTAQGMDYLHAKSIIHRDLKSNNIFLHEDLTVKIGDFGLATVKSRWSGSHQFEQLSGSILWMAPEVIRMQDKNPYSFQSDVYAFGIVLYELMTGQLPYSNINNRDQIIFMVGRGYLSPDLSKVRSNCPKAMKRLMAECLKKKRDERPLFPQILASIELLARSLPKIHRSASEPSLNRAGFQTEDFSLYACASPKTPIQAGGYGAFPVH
Cyclin-dependent kinase 4, sequence (P11802 whole entry): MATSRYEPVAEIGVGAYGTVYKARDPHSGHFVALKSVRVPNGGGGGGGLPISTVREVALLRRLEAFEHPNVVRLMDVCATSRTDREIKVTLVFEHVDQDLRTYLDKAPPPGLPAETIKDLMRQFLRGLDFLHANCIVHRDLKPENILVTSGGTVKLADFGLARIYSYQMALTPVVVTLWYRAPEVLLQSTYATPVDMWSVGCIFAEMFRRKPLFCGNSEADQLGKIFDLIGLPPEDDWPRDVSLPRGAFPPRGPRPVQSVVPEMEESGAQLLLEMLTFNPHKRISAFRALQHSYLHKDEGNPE
MAP kinase-activated protein kinase 2, sequence (P49137 whole entry): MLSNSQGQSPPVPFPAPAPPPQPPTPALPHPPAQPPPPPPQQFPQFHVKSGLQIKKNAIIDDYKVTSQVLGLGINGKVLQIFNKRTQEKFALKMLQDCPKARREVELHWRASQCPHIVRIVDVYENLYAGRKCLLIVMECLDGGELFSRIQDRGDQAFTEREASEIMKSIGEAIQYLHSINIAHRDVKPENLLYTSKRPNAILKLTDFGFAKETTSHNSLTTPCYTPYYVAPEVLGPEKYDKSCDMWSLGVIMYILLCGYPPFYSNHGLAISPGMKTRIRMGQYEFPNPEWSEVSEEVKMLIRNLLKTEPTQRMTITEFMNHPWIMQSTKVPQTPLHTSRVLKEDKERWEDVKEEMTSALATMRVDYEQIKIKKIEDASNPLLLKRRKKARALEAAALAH
Mitogen-activated protein kinase 14, sequence (Q16539 whole entry): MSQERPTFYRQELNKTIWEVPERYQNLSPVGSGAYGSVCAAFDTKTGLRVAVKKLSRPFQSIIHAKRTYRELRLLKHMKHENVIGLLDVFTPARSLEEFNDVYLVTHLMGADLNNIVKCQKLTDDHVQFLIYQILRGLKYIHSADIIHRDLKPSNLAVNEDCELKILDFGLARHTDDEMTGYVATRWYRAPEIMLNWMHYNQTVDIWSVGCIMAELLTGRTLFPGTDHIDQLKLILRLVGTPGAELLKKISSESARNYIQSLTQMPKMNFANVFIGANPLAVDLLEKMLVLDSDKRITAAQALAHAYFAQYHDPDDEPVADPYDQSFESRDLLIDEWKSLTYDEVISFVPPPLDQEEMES
Serine/threonine-protein kinase PLK1, sequence (P53350 whole entry): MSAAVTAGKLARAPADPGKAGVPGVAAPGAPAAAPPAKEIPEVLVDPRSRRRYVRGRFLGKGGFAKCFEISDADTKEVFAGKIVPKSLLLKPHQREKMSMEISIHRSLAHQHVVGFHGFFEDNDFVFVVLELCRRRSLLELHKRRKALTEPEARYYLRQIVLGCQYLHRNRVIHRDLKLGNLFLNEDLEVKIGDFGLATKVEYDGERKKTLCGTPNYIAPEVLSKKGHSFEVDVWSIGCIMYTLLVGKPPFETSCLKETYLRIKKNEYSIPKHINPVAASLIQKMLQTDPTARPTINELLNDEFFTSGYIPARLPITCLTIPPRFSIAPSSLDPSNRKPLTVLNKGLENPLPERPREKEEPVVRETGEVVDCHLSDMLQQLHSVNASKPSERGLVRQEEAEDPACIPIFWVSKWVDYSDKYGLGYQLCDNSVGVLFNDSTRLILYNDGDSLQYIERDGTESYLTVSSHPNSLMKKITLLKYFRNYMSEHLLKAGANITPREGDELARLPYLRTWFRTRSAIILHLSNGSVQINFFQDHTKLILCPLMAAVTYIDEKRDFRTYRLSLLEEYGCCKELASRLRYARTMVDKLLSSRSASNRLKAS
Mitogen-activated protein kinase 8, sequence (P45983 whole entry): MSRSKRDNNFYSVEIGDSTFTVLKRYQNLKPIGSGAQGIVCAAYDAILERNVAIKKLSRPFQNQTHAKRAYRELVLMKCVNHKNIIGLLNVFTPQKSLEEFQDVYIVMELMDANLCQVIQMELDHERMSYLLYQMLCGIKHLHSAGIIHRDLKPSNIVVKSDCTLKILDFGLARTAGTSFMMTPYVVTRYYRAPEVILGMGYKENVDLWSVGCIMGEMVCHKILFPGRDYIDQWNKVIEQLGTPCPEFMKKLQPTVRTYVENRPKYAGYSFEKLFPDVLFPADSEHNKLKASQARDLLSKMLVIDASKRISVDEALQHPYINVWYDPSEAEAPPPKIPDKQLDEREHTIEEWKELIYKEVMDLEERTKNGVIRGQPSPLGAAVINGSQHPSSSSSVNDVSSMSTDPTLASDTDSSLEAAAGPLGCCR
Ribosomal protein S6 kinase beta-1, sequence (P23443 whole entry): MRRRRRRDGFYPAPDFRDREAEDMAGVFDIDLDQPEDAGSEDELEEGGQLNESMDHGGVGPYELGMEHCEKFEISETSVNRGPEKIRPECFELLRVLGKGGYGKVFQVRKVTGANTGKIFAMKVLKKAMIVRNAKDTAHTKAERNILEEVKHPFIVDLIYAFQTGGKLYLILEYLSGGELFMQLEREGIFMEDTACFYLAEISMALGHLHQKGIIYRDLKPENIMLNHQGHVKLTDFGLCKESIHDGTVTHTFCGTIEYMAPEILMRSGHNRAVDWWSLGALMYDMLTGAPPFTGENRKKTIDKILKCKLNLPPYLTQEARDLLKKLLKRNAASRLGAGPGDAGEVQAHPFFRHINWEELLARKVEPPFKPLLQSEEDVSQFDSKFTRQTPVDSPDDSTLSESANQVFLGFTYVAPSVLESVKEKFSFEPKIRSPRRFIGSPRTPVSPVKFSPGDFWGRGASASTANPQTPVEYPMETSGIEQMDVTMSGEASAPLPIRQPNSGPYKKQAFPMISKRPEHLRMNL

Row | SMILES | pIC50 (WM-266-4 (Homo sapiens) [1]) | pIC50 [2] | pIC50 [3] | also measured
1 | COCCOCC(=O)Nc1ccc(-c2cnn3c(-c4cccc(NC(=O)c5cccc(C(F)(F)F)c5)c4)ccnc23)cc1 | < 5.00 | 6.86 | 5.41 | –
2 | CN(C)Cc1ccccc1-c1cnn2c(-c3cccc(NC(=O)c4cccc(C(F)(F)F)c4)c3)ccnc12 | 5.54 | – | 5.54 | –
3 | NC(=O)c1cccc(-c2cnn3c(-c4cccc(NC(=O)c5cccc(C(F)(F)F)c5)c4)ccnc23)c1 | – | – | 5.49 | pIC50 (WM-266-4 (Homo sapiens) [4]): 5.43
4 | CCN1CCN(Cc2cc(-c3cnn4c(-c5cccc(NC(=O)c6cccc(C(F)(F)F)c6)c5)ccnc34)co2)CC1 | 5.54 | 6.66 | 5.77 | –
5 | CN(C)CC(=O)Nc1ccc(-c2cnn3c(-c4cccc(NC(=O)c5cccc(C(F)(F)F)c5)c4)ccnc23)cc1 | – | 7.47 | 6.11 | –
6 | Nc1ccc(-c2cnn3c(-c4cccc(NC(=O)c5cccc(C(F)(F)F)c5)c4)ccnc23)cn1 | 5.47 | – | 5.62 | –
7 | CN(C)CCc1ccccc1-c1cnn2c(-c3cccc(NC(=O)c4cccc(C(F)(F)F)c4)c3)ccnc12 | – | – | 6.08 | –
8 | O=C(Nc1cccc(-c2ccnc3c(C#CCCCN4CCOCC4)cnn23)c1)c1cccc(C(F)(F)F)c1 | 5.26 | – | 5.46 | half-life (in vitro): > 30 min
9 | O=C(Nc1cccc(-c2ccnc3c(-c4cnn(CCN5CCCC5)c4)cnn23)c1)c1cccc(C(F)(F)F)c1 | 5.48 | – | 5.55 | half-life (in vitro): 26 min
10 | O=C(Nc1cccc(-c2ccnc3c(-c4cn[nH]c4)cnn23)c1)c1cccc(C(F)(F)F)c1 | – | – | 5.55 | –
11 | CN(C)CCc1ccc(-c2cnn3c(-c4cccc(NC(=O)c5cccc(C(F)(F)F)c5)c4)ccnc23)cc1 | 6.13 | – | 6.14 | –
12 | CN1CCN(c2ccc(-c3cnn4c(-c5cccc(NC(=O)c6cccc(C(F)(F)F)c6)c5)ccnc34)cn2)CC1 | – | 7.36 | 6.51 | –
13 | CN(C)CCNc1ccc(-c2cnn3c(-c4cccc(NC(=O)c5cccc(C(F)(F)F)c5)c4)ccnc23)cn1 | – | – | 6.34 | –
14 | O=C(Nc1ccc(F)c(-c2ccnc3c(-c4cn[nH]c4)cnn23)c1)c1cccc(C(F)(F)F)c1 | – | 7.74 | 5.55 | –
15 | CN(C)Cc1cccc(-c2cnn3c(-c4cccc(NC(=O)c5cccc(C(F)(F)F)c5)c4)ccnc23)c1 | – | – | 6.10 | –
16 | CN(C)Cc1ccc(-c2cnn3c(-c4cccc(NC(=O)c5cccc(C(F)(F)F)c5)c4)ccnc23)cc1 | – | – | 6.11 | pIC50 [5]: 6.67; pIC50 [6]: 6.09; pIC50 [7]: < 5.70; pIC50 [8]: < 5.70; pIC50 [9]: < 5.70; pIC50 [10]: < 5.70; pIC50 [11]: < 5.70; pIC50 [12]: < 5.70; pIC50 [13]: < 5.70; pIC50 [14]: < 5.70; pIC50 [15]: < 5.70; pIC50 [16]: < 5.70; half-life (in vitro): 6 min; pIC50 [17]: < 5.70; pIC50 [18]: < 5.70
17 | CN(C)CC(=O)Nc1cccc(-c2cnn3c(-c4cccc(NC(=O)c5cccc(C(F)(F)F)c5)c4)ccnc23)c1 | – | – | 6.10 | –
18 | CN(C)CCc1cccc(-c2cnn3c(-c4cccc(NC(=O)c5cccc(C(F)(F)F)c5)c4)ccnc23)c1 | – | – | 6.19 | –
19 | CN(C)c1ccc(-c2cnn3c(-c4cccc(NC(=O)c5cccc(C(F)(F)F)c5)c4)ccnc23)cc1 | < 5.00 | 6.51 | – | –
20 | O=C(Nc1cccc(-c2ccnc3c(-c4cccnc4)cnn23)c1)c1cccc(C(F)(F)F)c1 | – | 6.95 | – | –
21 | CN1CCN(c2ccc(-c3cnn4c(-c5cc(NC(=O)c6cccc(C(F)(F)F)c6)ccc5F)ccnc34)cn2)CC1 | – | 7.52 | 6.20 | –
22 | COc1ccc(NC(=O)c2cccc(C(F)(F)F)c2)cc1-c1ccnc2c(-c3cn[nH]c3)cnn12 | – | 7.01 | 5.54 | –
23 | CN1CCN(CCCC#Cc2cnn3c(-c4cccc(NC(=O)c5cccc(C(F)(F)F)c5)c4)ccnc23)CC1 | 5.85 | – | 5.59 | half-life (in vitro): 3 min
24 | O=C(Nc1cccc(-c2ccnc3c(-c4cnc(N5CCOCC5)nc4)cnn23)c1)c1cccc(C(F)(F)F)c1 | – | 6.03 | – | –
25 | O=C(Nc1cccc(-c2ccnc3c(-c4coc(CN5CCCC5)c4)cnn23)c1)c1cccc(C(F)(F)F)c1 | 5.49 | – | 5.66 | –
26 | CN1CCN(Cc2ccc(-c3cnn4c(-c5cccc(NC(=O)c6cccc(C(F)(F)F)c6)c5)ccnc34)cc2)CC1 | – | 7.42 | 6.15 | half-life (in vitro): 3 min
27 | O=C(Nc1ccc(Cl)c(-c2ccnc3c(-c4cn[nH]c4)cnn23)c1)c1cccc(C(F)(F)F)c1 | – | 7.38 | 5.54 | –
28 | O=C(Nc1cccc(-c2ccnc3c(-c4ccc(CN5CCCC5)cc4)cnn23)c1)c1cccc(C(F)(F)F)c1 | – | 7.70 | 6.19 | half-life (in vitro): 27 min
